Source: publication PMC5218480 (PLoS ONE, 2017)

Test system: MV-4-11 cells
Test: Gene expression microarray analysis (Affymetrix PrimeView) and GSEA
Assay type: cell-based, human
Design: RFU PODN (11730768_x_at) / Fold change /veh PODN (11730768_x_at) / RFU LINC00158 (11744669_a_at) / Fold change /veh LINC00158 (11744669_a_at) / RFU DUSP10 (11751237_a_at) / Fold change /veh DUSP10 (11751237_a_at) / RFU ID3 (11757404_x_at) / Fold change /veh ID3 (11757404_x_at) / RFU PLEKHG5 (11737974_s_at) / Fold change /veh PLEKHG5 (11737974_s_at) / RFU LRRC4B (11730491_at) / Fold change /veh LRRC4B (11730491_at) / RFU GIMAP4 (11747438_a_at) / Fold change /veh GIMAP4 (11747438_a_at) / RFU KRT8 (11758183_x_at) / Fold change /veh KRT8 (11758183_x_at) / RFU CNN1 (11734310_a_at) / Fold change /veh CNN1 (11734310_a_at) / RFU VPS37D (11726825_at) / Fold change /veh VPS37D (11726825_at) / RFU C10orf10 (11716522_x_at) / Fold change /veh C10orf10 (11716522_x_at) / RFU KIR2DL2 /// KIR2DL4 /// KIR2DL5A /// KIR2DL5B /// KIR2DS1 /// KIR2DS2 /// KIR2DS3 /// KIR2DS4 /// KIR3DL3 /// KIR3DL3 /// KIR3DS1 (11738374_at) / Fold change /veh KIR2DL2 /// KIR2DL4 /// KIR2DL5A /// KIR2DL5B /// KIR2DS1 /// KIR2DS2 /// KIR2DS3 /// KIR2DS4 /// KIR3DL3 /// KIR3DL3 /// KIR3DS1 (11738374_at) / RFU C1QL1 (11718748_at) / Fold change /veh C1QL1 (11718748_at) / RFU TMPRSS4 (11747572_a_at) / Fold change /veh TMPRSS4 (11747572_a_at) / RFU HAMP (11756126_x_at) / Fold change /veh HAMP (11756126_x_at) / RFU RNFT2 (11725882_a_at) / Fold change /veh RNFT2 (11725882_a_at) / RFU NR4A2 (11747474_a_at) / Fold change /veh NR4A2 (11747474_a_at) / RFU ABCC12 (11746883_a_at) / Fold change /veh ABCC12 (11746883_a_at) / RFU TMEM136 (11760407_x_at) / Fold change /veh TMEM136 (11760407_x_at) / RFU CLDN22 /// WWC2 (11732394_at) / Fold change /veh CLDN22 /// WWC2 (11732394_at) / RFU HLA-DPB1 (11760878_x_at) / Fold change /veh HLA-DPB1 (11760878_x_at) / RFU SPINT1 (11716480_a_at) / Fold change /veh SPINT1 (11716480_a_at) / RFU GAP43 (11754022_s_at) / Fold change /veh GAP43 (11754022_s_at) / RFU A4GNT (11735810_at) / Fold change /veh A4GNT (11735810_at) / RFU PRB3 (11715151_x_at) / Fold change /veh PRB3 (11715151_x_at) / RFU TUBB4B (11761932_at) / Fold change /veh TUBB4B (11761932_at) / RFU CAPN14 (11732068_a_at) / Fold change /veh CAPN14 (11732068_a_at) / RFU TMCC2 (11721928_a_at) / Fold change /veh TMCC2 (11721928_a_at) / RFU IRGQ (11745062_a_at) / Fold change /veh IRGQ (11745062_a_at) / RFU FAM174B (11720279_a_at) / Fold change /veh FAM174B (11720279_a_at) / RFU TMPRSS4 (11748680_a_at) / Fold change /veh TMPRSS4 (11748680_a_at) / RFU FAM212B (11763350_a_at) / Fold change /veh FAM212B (11763350_a_at) / RFU PLEKHG5 (11743358_a_at) / Fold change /veh PLEKHG5 (11743358_a_at) / RFU ZSCAN30 (11745921_a_at) / Fold change /veh ZSCAN30 (11745921_a_at) / RFU CMKLR1 (11741424_a_at) / Fold change /veh CMKLR1 (11741424_a_at) / RFU LOC101060620 /// MAPK8IP1 (11723275_at) / Fold change /veh LOC101060620 /// MAPK8IP1 (11723275_at) / RFU SPTSSB (11747773_x_at) / Fold change /veh SPTSSB (11747773_x_at) / RFU PRSS12 (11739890_at) / Fold change /veh PRSS12 (11739890_at) / RFU BIN1 (11741810_x_at) / Fold change /veh BIN1 (11741810_x_at) / RFU WNT11 (11732464_a_at) / Fold change /veh WNT11 (11732464_a_at) / RFU C10orf10 (11716521_a_at) / Fold change /veh C10orf10 (11716521_a_at) / RFU C5orf56 (11738089_at) / Fold change /veh C5orf56 (11738089_at) / RFU CYB561 (11721691_x_at) / Fold change /veh CYB561 (11721691_x_at) / RFU ANKRD19P (11752326_a_at) / Fold change /veh ANKRD19P (11752326_a_at) / RFU OR2T12 /// OR2T33 /// OR2T8 (11738714_s_at) / Fold change /veh OR2T12 /// OR2T33 /// OR2T8 (11738714_s_at) / RFU VCAN (11748164_a_at) / Fold change /veh VCAN (11748164_a_at) / RFU JSRP1 (11732532_at) / Fold change /veh JSRP1 (11732532_at) / RFU KRTAP10-11 (11738290_x_at) / Fold change /veh KRTAP10-11 (11738290_x_at) / RFU MYO3A (11730013_a_at) / Fold change /veh MYO3A (11730013_a_at) / RFU EBF3 (11725865_a_at) / Fold change /veh EBF3 (11725865_a_at) / RFU CAMK2N1 (11719241_x_at) / Fold change /veh CAMK2N1 (11719241_x_at) / RFU C5orf56 (11738088_a_at) / Fold change /veh C5orf56 (11738088_a_at) / RFU OLFML3 (11715873_a_at) / Fold change /veh OLFML3 (11715873_a_at) / RFU LOC100653217 /// NTM (11731650_a_at) / Fold change /veh LOC100653217 /// NTM (11731650_a_at) / RFU MAPK11 (11762145_a_at) / Fold change /veh MAPK11 (11762145_a_at) / RFU FIZ1 (11724087_x_at) / Fold change /veh FIZ1 (11724087_x_at) / RFU OASL (11726364_x_at) / Fold change /veh OASL (11726364_x_at) / RFU SOX15 (11748057_x_at) / Fold change /veh SOX15 (11748057_x_at) / RFU CD79A (11719716_a_at) / Fold change /veh CD79A (11719716_a_at) / RFU HIST1H1D (11736915_at) / Fold change /veh HIST1H1D (11736915_at) / RFU CASKIN2 (11723855_a_at) / Fold change /veh CASKIN2 (11723855_a_at) / RFU LOC730098 (11760151_x_at) / Fold change /veh LOC730098 (11760151_x_at) / RFU OR4N2 (11742367_at) / Fold change /veh OR4N2 (11742367_at) / RFU PRRT2 (11749266_a_at) / Fold change /veh PRRT2 (11749266_a_at) / RFU SNX32 (11753110_a_at) / Fold change /veh SNX32 (11753110_a_at) / RFU CDHR5 (11726645_a_at) / Fold change /veh CDHR5 (11726645_a_at) / RFU RCAN1 (11760418_a_at) / Fold change /veh RCAN1 (11760418_a_at) / RFU FAM167A (11723789_a_at) / Fold change /veh FAM167A (11723789_a_at) / RFU FAM26E (11764081_at) / Fold change /veh FAM26E (11764081_at) / RFU ISYNA1 (11749810_s_at) / Fold change /veh ISYNA1 (11749810_s_at) / RFU ACY1 (11761880_at) / Fold change /veh ACY1 (11761880_at) / RFU 11764098_at / Fold change /veh 11764098_at / RFU SAMD14 (11745864_x_at) / Fold change /veh SAMD14 (11745864_x_at) / RFU NPB (11741838_a_at) / Fold change /veh NPB (11741838_a_at) / RFU TMPRSS6 (11731388_a_at) / Fold change /veh TMPRSS6 (11731388_a_at) / RFU KRTAP10-2 (11738614_at) / Fold change /veh KRTAP10-2 (11738614_at) / RFU ARHGAP8 /// PRR5-ARHGAP8 (11727945_x_at) / Fold change /veh ARHGAP8 /// PRR5-ARHGAP8 (11727945_x_at) / RFU KRTAP5-7 /// NADSYN1 (11734609_at) / Fold change /veh KRTAP5-7 /// NADSYN1 (11734609_at) / RFU RASL12 (11751679_a_at) / Fold change /veh RASL12 (11751679_a_at) / RFU CDKN2B (11736163_a_at) / Fold change /veh CDKN2B (11736163_a_at) / RFU PRF1 (11729649_at) / Fold change /veh PRF1 (11729649_at) / RFU, ZNF638 /// ZNF638-IT1 / Fold change vs veh, ZNF638 /// ZNF638-IT1 / RFU, PANK3 / Fold change vs veh, PANK3 / RFU, SH3YL1 / Fold change vs veh, SH3YL1 / RFU, ZEB2 / Fold change vs veh, ZEB2 / RFU, NRIP1 / Fold change vs veh, NRIP1 / RFU, PTTG1IP / Fold change vs veh, PTTG1IP / RFU, CAPN2 / Fold change vs veh, CAPN2 / RFU, MED14 / Fold change vs veh, MED14 / RFU, SNORA58 / Fold change vs veh, SNORA58 / RFU, C1orf63 / Fold change vs veh, C1orf63 / RFU, LRRFIP1 / Fold change vs veh, LRRFIP1 / RFU, NDUFAF7 / Fold change vs veh, NDUFAF7 / RFU, SLC12A2 / Fold change vs veh, SLC12A2 / RFU, IBTK / Fold change vs veh, IBTK / RFU, ESF1 / Fold change vs veh, ESF1 / Fold change vs veh, TMEM50B / RFU, TAOK1 / Fold change vs veh, TAOK1 / RFU, ACBD3 / Fold change vs veh, ACBD3 / RFU, TMA16 / Fold change vs veh, TMA16 / RFU, RWDD3 / Fold change vs veh, RWDD3 / RFU, BCAT1 / Fold change vs veh, BCAT1 / RFU, EDEM3 / Fold change vs veh, EDEM3 / RFU, TMEM33 / Fold change vs veh, TMEM33 / RFU, WDR75 / Fold change vs veh, WDR75 / RFU, AHCTF1 / Fold change vs veh, AHCTF1 / RFU, TFRC / Fold change vs veh, TFRC / RFU, ZDHHC17 / Fold change vs veh, ZDHHC17 / RFU, NOM1 / Fold change vs veh, NOM1 / RFU, ARL8B / Fold change vs veh, ARL8B / RFU, ZBTB11 / Fold change vs veh, ZBTB11 / RFU, TAMM41 / Fold change vs veh, TAMM41 / RFU, KIAA1704 /// LOC100996395 / Fold change vs veh, KIAA1704 /// LOC100996395 / RFU, ING1 / Fold change vs veh, ING1 / RFU, TRMT61B / Fold change vs veh, TRMT61B / RFU, FUBP3 / Fold change vs veh, FUBP3 / RFU, TP53 / Fold change vs veh, TP53 / RFU, TNKS2 / Fold change vs veh, TNKS2 / RFU, ZFP14 / Fold change vs veh, ZFP14 / RFU, ACTR2 / Fold change vs veh, ACTR2 / RFU, PPP3R1 / Fold change vs veh, PPP3R1 / RFU, PIK3R1 / Fold change vs veh, PIK3R1 / RFU, HNRNPA1 / Fold change vs veh, HNRNPA1 / RFU, RNF170 / Fold change vs veh, RNF170 / RFU, ZNF28 / Fold change vs veh, ZNF28 / RFU, RNGTT / Fold change vs veh, RNGTT / RFU, OGT / Fold change vs veh, OGT / RFU, BRD1 / Fold change vs veh, BRD1 / RFU, MARS / Fold change vs veh, MARS / RFU, ZNF655 / Fold change vs veh, ZNF655 / RFU, FAHD1 / Fold change vs veh, FAHD1 / RFU, BDP1 / Fold change vs veh, BDP1 / RFU, LRRCC1 / Fold change vs veh, LRRCC1 / RFU, ARID1A / Fold change vs veh, ARID1A / RFU, ZNF146 / Fold change vs veh, ZNF146 / RFU, ZNF330 / Fold change vs veh, ZNF330 / RFU, GPN3 / Fold change vs veh, GPN3 / RFU, C9orf123 / Fold change vs veh, C9orf123 / RFU, N4BP2L2 / Fold change vs veh, N4BP2L2 / RFU, ARFIP1 / Fold change vs veh, ARFIP1 / RFU, FAM179B / Fold change vs veh, FAM179B / RFU, BCL10 / Fold change vs veh, BCL10 / RFU, UHRF1BP1L / Fold change vs veh, UHRF1BP1L / RFU, BET1 / Fold change vs veh, BET1 / RFU, CNOT2 / Fold change vs veh, CNOT2 / RFU, ZNF268 / Fold change vs veh, ZNF268 / Fold change vs veh, ZNF507 / RFU, DGCR2 / Fold change vs veh, DGCR2 / RFU, WDSUB1 / Fold change vs veh, WDSUB1 / Fold change vs veh, HSP90B1 /// MIR3652 / RFU, ADSS / Fold change vs veh, ADSS / RFU, GK / Fold change vs veh, GK / RFU, ZNF148 / Fold change vs veh, ZNF148 / RFU, TAF9 / Fold change vs veh, TAF9 / RFU, SLC1A5 / Fold change vs veh, SLC1A5 / RFU, SLMO2 / Fold change vs veh, SLMO2 / RFU, ABCC4 / Fold change vs veh, ABCC4 / RFU, LOC101060439 /// RAP1B / Fold change vs veh, LOC101060439 /// RAP1B / RFU, RFX7 / Fold change vs veh, RFX7 / RFU, GTPBP10 / Fold change vs veh, GTPBP10 / RFU, CNEP1R1 / Fold change vs veh, CNEP1R1 / RFU, BIVM-ERCC5 /// ERCC5 / Fold change vs veh, BIVM-ERCC5 /// ERCC5 / RFU, ILF3 / Fold change vs veh, ILF3 / RFU 11762660_at / Fold change /veh 11762660_at / RFU VCAN (11757783_s_at) / Fold change /veh VCAN (11757783_s_at) / RFU DDX43 (11728927_at) / Fold change /veh DDX43 (11728927_at) / RFU KRT8 (11758188_x_at) / Fold change /veh KRT8 (11758188_x_at) / RFU NKD1 (11759106_at) / Fold change /veh NKD1 (11759106_at) / RFU SRD5A1 (11742802_a_at) / Fold change /veh SRD5A1 (11742802_a_at) / RFU TPSAB1 /// TPSB2 (11721975_s_at) / Fold change /veh TPSAB1 /// TPSB2 (11721975_s_at) / RFU GSTM3 (11746129_a_at) / Fold change /veh GSTM3 (11746129_a_at) / RFU IL23R (11737362_x_at) / Fold change /veh IL23R (11737362_x_at) / RFU TMEM51 (11727254_a_at) / Fold change /veh TMEM51 (11727254_a_at) / RFU PIWIL2 (11732686_x_at) / Fold change /veh PIWIL2 (11732686_x_at) / RFU ORM1 (11744905_x_at) / Fold change /veh ORM1 (11744905_x_at) / RFU CCDC152 (11743942_at) / Fold change /veh CCDC152 (11743942_at) / RFU ECM1 (11717891_a_at) / Fold change /veh ECM1 (11717891_a_at) / RFU IL23R (11748794_a_at) / Fold change /veh IL23R (11748794_a_at) / RFU TNFAIP8L3 (11732012_x_at) / Fold change /veh TNFAIP8L3 (11732012_x_at) / RFU MBOAT4 (11741988_at) / Fold change /veh MBOAT4 (11741988_at) / RFU 11764193_at / Fold change /veh 11764193_at / RFU TMEM53 (11763286_at) / Fold change /veh TMEM53 (11763286_at) / RFU MAGEB2 (11727129_at) / Fold change /veh MAGEB2 (11727129_at) / RFU TMEM200A (11744735_a_at) / Fold change /veh TMEM200A (11744735_a_at) / RFU CCDC152 (11751479_a_at) / Fold change /veh CCDC152 (11751479_a_at) / RFU FAM211A (11726209_a_at) / Fold change /veh FAM211A (11726209_a_at) / RFU RGS16 (11746705_a_at) / Fold change /veh RGS16 (11746705_a_at) / RFU VCAN (11755009_s_at) / Fold change /veh VCAN (11755009_s_at) / RFU RHOB (11743442_s_at) / Fold change /veh RHOB (11743442_s_at) / RFU RGS16 (11720943_a_at) / Fold change /veh RGS16 (11720943_a_at) / RFU RGS16 (11720944_at) / Fold change /veh RGS16 (11720944_at) / RFU, VPS4B / Fold change vs veh, VPS4B / RFU, CREB1 / Fold change vs veh, CREB1 / RFU, DNAJC13 / Fold change vs veh, DNAJC13 / RFU, GNAQ / Fold change vs veh, GNAQ / RFU, CDK5R1 / Fold change vs veh, CDK5R1 / RFU, ZRANB3 / Fold change vs veh, ZRANB3 / RFU, CUL4A / Fold change vs veh, CUL4A / RFU, CCNY / Fold change vs veh, CCNY / RFU, UFL1 / Fold change vs veh, UFL1 / RFU, COG3 / Fold change vs veh, COG3 / RFU, DIAPH2 / Fold change vs veh, DIAPH2 / RFU, SKA2 / Fold change vs veh, SKA2 / RFU, AFF3 / Fold change vs veh, AFF3 / RFU, LMF1 / Fold change vs veh, LMF1 / RFU, IPO11 / Fold change vs veh, IPO11 / RFU, DFFB / Fold change vs veh, DFFB / RFU, FOXP1 / Fold change vs veh, FOXP1 / RFU, CARD8 / Fold change vs veh, CARD8 / RFU, STRN3 / Fold change vs veh, STRN3 / RFU, ADK / Fold change vs veh, ADK / RFU, RASSF2 / Fold change vs veh, RASSF2 / RFU, WIPF1 / Fold change vs veh, WIPF1 / RFU, LARP1B / Fold change vs veh, LARP1B / RFU, RASA1 / Fold change vs veh, RASA1 / RFU, RB1 / Fold change vs veh, RB1 / RFU, PPFIA1 / Fold change vs veh, PPFIA1 / RFU, MAT2A / Fold change vs veh, MAT2A / RFU, CCT5 / Fold change vs veh, CCT5 / RFU, WDR92 / Fold change vs veh, WDR92 / RFU, CUX1 / Fold change vs veh, CUX1 / RFU, TTC7A / Fold change vs veh, TTC7A / RFU, TMEM135 / Fold change vs veh, TMEM135 / RFU, DEPTOR / Fold change vs veh, DEPTOR / RFU, CPM / Fold change vs veh, CPM / RFU, DNAJB6 / Fold change vs veh, DNAJB6 / RFU, CACNA2D3 / Fold change vs veh, CACNA2D3 / RFU, DTX4 / Fold change vs veh, DTX4 / RFU, TFCP2 / Fold change vs veh, TFCP2 / RFU, GMCL1 /// GMCL1P1 / Fold change vs veh, GMCL1 /// GMCL1P1 / RFU, AEBP2 / Fold change vs veh, AEBP2 / RFU, SNHG1 /// SNORD22 /// SNORD25 /// SNORD26 /// SNORD27 /// SNORD28 /// SNORD29 /// SNORD31 / Fold change vs veh, SNHG1 /// SNORD22 /// SNORD25 /// SNORD26 /// SNORD27 /// SNORD28 /// SNORD29 /// SNORD31 / Fold change (Aza/veh), C12orf56 (ProbeSet 11735607_a_at) / Fold change (ACY-1035/veh), C12orf56 (ProbeSet 11735607_a_at) / Fold change (Aza/veh), FGFR1OP (ProbeSet 11751329_s_at) / Fold change (ACY-1035/veh), FGFR1OP (ProbeSet 11751329_s_at) / Fold change (Aza/veh), VPS36 (ProbeSet 11739960_a_at) / Fold change (ACY-1035/veh), VPS36 (ProbeSet 11739960_a_at) / RFU SYPL1 (11715823_x_at) / Fold change /veh SYPL1 (11715823_x_at) / RFU IGFBP7 (11715501_s_at) / Fold change /veh IGFBP7 (11715501_s_at) / RFU REEP3 (11722064_at) / Fold change /veh REEP3 (11722064_at) / RFU IGLL1 (11728026_x_at) / Fold change /veh IGLL1 (11728026_x_at): dose or concentration left out as unconfirmed
Settings: MV-4-11 cells, 48 hours

Structure (SMILES): Nc1ncn([C@@H]2O[C@H](CO)[C@@H](O)[C@H]2O)c(=O)n1 [azacitidine]
- Fold change /veh CAPN14 (11732068_a_at): 1.07
